For this series, the system named is Salmonella typhimurium Ames mutagenicity, literature compiled. Nature of the series: DSSTox (CPDBAS) Carcinogenic Potency Database Salmonella Mutagenicity. Summed up: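 Calls derive from published evaluations rather than new testing; overall "positive" in EPA Gene-Tox, or "mutagenic"/"weakly mutagenic" per Zeiger, counts as active.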

Calls of active or inactive are those of the source.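 Rule for the calls: active = chemicals rated mutagenic or weakly mutagenic in the Salmonella bacterial test by one literature review, or positive overall by another; inconclusive = no clear call, values can overlap the other calls; inactive = the rest.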

In the case of `Nc1ccccc1C(=O)OC/C=C/c1ccccc1`, the result was inactive.
Then `COc1ccc(C(=O)/C(Br)=C\C(=O)O)cc1`, with “active”.
With `OC(c1ccc(Cl)cc1)(c1ccc(Cl)cc1)C(Cl)(Cl)Cl` the entry was “inactive; active”.
Then `Nc1cc([N+](=O)[O-])ccc1O`, with “active”; and `C=CC(=C)C`, with “inactive”; and `CC1CCC(C(C)C)C(O)C1` (stereo not drawn), with “inactive; active”.
`ClC1=C(Cl)C2(Cl)C3C(Cl)C=CC3C1(Cl)C2(Cl)Cl` (stereo not drawn): the outcome is “inactive; active”.
Then `CC(N)Cc1ccccc1` (stereo not drawn), with “inactive”.
Then `CCNC(=S)NCC`, with “inactive”.
With `Oc1cccc2cccnc12` the entry was “active; inactive”.
As for `CC(=O)Nc1ccc(O)cc1`, the outcome is “inactive; active”.
Then `CC(Cl)Cl`, with “inactive; active”.
For the molecule `CCNc1nc(Cl)nc(NC(C)C)n1`, the outcome was “inactive; active”.
Then `OO`, with “active”; and `C#C[C@]1(O)CC[C@H]2[C@@H]3CCC4=C(CCC(=O)C4)[C@H]3CC[C@@]21C`, with “inactive; active”; and `COc1cc(CNC(=O)CCCC/C=C/C(C)C)ccc1O`, with “inactive; active”.
Turning to `CC1=C(/C=C/C(C)=C/C=C/C(C)=C/C=C/C=C(C)/C=C/C=C(C)/C=C/C2=C(C)CCCC2(C)C)C(C)(C)CCC1`, the outcome is “active; inactive”.
With `Cc1cccc(C)c1N` the entry was “active”; with `Nc1ncn([C@@H]2O[C@H](CO)[C@@H](O)[C@H]2O)c(=O)n1`, “active”.
With `Cc1cc(-c2ccc(N)c(C)c2)ccc1N` the entry was “active; inactive”.
With `NNCCc1ccccc1`, the outcome is “active; inactive”.
With `CCCN(N=O)C(N)=O` the entry was “active”.
In the case of `O=CCCCC=O`, the result was active.
On to `C[C@H]1CCCC(=O)CCC/C=C/c2cc(O)cc(O)c2C(=O)O1`, for which the outcome was “inactive; active”.
With `COc1ccc(O)c(C(C)(C)C)c1` the entry was “inactive; active”.
In the case of `c1ccc2c(c1)[nH]c1cnccc12`, the result was active.
For the molecule `ClCC(Cl)Cl`, the outcome was inactive.
With `CC1CN(N=O)CC(C)N1C(=O)c1ccccc1` (stereo not drawn) the entry was “inactive”; with `CCOC(N)=O`, “active; inactive”.
With `Nc1ccc(Cl)c(N)c1` the entry was “active; inactive”; with `OCC(CO)(CBr)CBr`, “active”; with `C=CC(O)c1ccc(OC)cc1` (stereo not drawn), “inactive; active”.
With `O=C1C2CC=CCC2C(=O)N1SC(Cl)(Cl)Cl` (stereo not drawn) the entry was “active”; with `CCC(Br)(CC)C(=O)NC(N)=O`, “inactive”.
For `CC(C)CCC[C@@H](C)[C@H]1CC[C@H]2[C@@H]3CC=C4C[C@@H](OC(=O)Cc5ccc(N(CCCl)CCCl)cc5)CC[C@]4(C)[C@H]3CC[C@]12C`, the outcome is “inactive; active”.
As for `O=C(Nc1nc(-c2ccc([N+](=O)[O-])o2)cs1)C(F)(F)F`, the result was active.
Then `CC(Cl)CCl` (stereo not drawn), with “active; inactive”; and `ClCc1ccccc1`, with “active”; and `O=S1(=O)OCCO1`, with “inactive”.
With `CC1(C)S[C@@H]2[C@H](NC(=O)[C@H](N)c3ccccc3)C(=O)N2[C@H]1C(=O)O` the entry was “inactive”.
With `COc1ccc(N)cc1N` the entry was “active; inactive”; with `Cl/C=C/CCl`, “active; inactive”; with `CCCCC1C(=O)N(c2ccccc2)N(c2ccccc2)C1=O`, “inactive”.
Turning to `CCCCCc1cc(O)c2c(c1)OC(C)(C)[C@@H]1CCC(C)=C[C@@H]21`, the outcome is “inactive; active”.
With `CC(=O)OC/C=C(\C)CCC=C(C)C` the entry was “inactive”.
Then `CC1=C2C(=CO[C@@H](C)[C@@H]2C)C(=O)C(C(=O)O)=C1O`, with “inactive; active”; and `O=C(O)c1[nH]n(-c2ccc(S(=O)(=O)O)cc2)c(=O)c1N=Nc1ccc(S(=O)(=O)O)cc1`, with “inactive; active”.
As to `O=C1CCCCCN1`, the outcome is “inactive; active”.
With `C=CCOC(=O)c1ccccc1C(=O)OCC=C` the entry was “inactive; active”.
As to `CN(C)Nc1nc(-c2ccc([N+](=O)[O-])o2)cs1`, the outcome was “active; inactive”.
With `CC(C)Oc1ccccc1OC(=O)N(C)N=O` the entry was “active”; with `O[C@@H]([C@H](O)[C@@H](O)CBr)[C@@H](O)CBr`, “active”.
Then `CNc1ccc(N(CCO)CCO)cc1[N+](=O)[O-]`, with “active”.
Then `CC1(C)S[C@@H]2[C@H](NC(=O)COc3ccccc3)C(=O)N2[C@H]1C(=O)O`, with “inactive; active”; and `CCOC(=O)CC(SP(=O)(OC)OC)C(=O)OCC` (stereo not drawn), with “inactive”.
Regarding `ClC(Cl)(Cl)C(Cl)(Cl)Cl`, the outcome is “inactive; active”.
As for `C=COC(C)=O`, the result was inactive.
With `Nc1ccccc1N` the entry was “active”; with `Cc1cc(N=Nc2ccccc2C)ccc1N`, “active”; with `COC(C)(C)C`, “inactive; active”.
Then `NCCS(=O)(=O)O`, with “inactive; active”.
With `O=C(O)c1ccccc1` the entry was “inactive”.
Take `c1cc(OCC2CO2)cc(OCC2CO2)c1` (stereo not drawn): the result was active.
Then `c1ccc2[nH]c(-c3cscn3)nc2c1`, with “active”; and `Cc1ncc([N+](=O)[O-])n1C`, with “active”.
Then `Cn1cc[nH]c1=S`, with “inactive; active”; and `Nc1ccc(Cl)cc1N`, with “active; inactive”; and `O=NN1CCCC1`, with “active”.
With `CCn1cc(C(=O)O)c(=O)c2ccc(C)nc21` the entry was “inactive”; with `O=C1C=CC(=O)C=C1`, “inactive; active”.
Consider `C=C(C)[C@H]1CC=C(C)CC1`, for which the outcome is “inactive; active”.
Then `IC(I)I`, with “active”; and `Clc1ccccc1`, with “inactive; active”.
With `CC1=CC(=C(c2ccc(N)cc2)c2ccc(N)cc2)C=CC1=N` the entry was “active; inactive”.
With `OCCN(CCO)c1nc(-c2cccs2)nc2ccccc12` the entry was “inactive”.
Regarding `CC(C)CN(N=O)C(=N)N[N+](=O)[O-]`, the outcome was active.
Then `CN(C)c1ccc(N=NS(=O)(=O)O)cc1`, with “active; inactive”; and `O=c1[nH]cc(F)c(=O)[nH]1`, with “inactive; active”; and `Cc1ccc(N)c(C)c1`, with “active”.
Then `Cc1ccc(NC(N)=O)cc1`, with “inactive; active”; and `Oc1cc2c(cc1O)[C@H]1c3ccc(O)c(O)c3OC[C@@]1(O)C2`, with “inactive; active”; and `C=CC(=O)OCC`, with “inactive”.
With `CN(C)c1ccc(Cc2ccc(N(C)C)cc2)cc1` the entry was “active”; with `CN(C)C(=O)Cl`, “active”; with `OCCOCCO`, “inactive; active”.
Regarding `c1ccc(Nc2ccc(Nc3ccccc3)cc2)cc1`, the outcome was “active; inactive”.
Then `Clc1ccc(C(c2ccccc2Cl)C(Cl)Cl)cc1` (stereo not drawn), with “inactive”.
With `ClC(Cl)=C(Cl)C(Cl)=C(Cl)Cl` the entry was “inactive; active”.
With `Oc1ccccc1` the entry was “inactive”; with `[N-]=[N+]=CC(=O)OC[C@H](N)C(=O)O`, “active”.
For `CCC1(c2ccccc2)C(=O)N=C(O)NC1=O` (stereo not drawn), the result was inactive.
Then `[C-]1=CC=CC1.[C-]1=CC=CC1.[Cl-].[Cl-].[Ti+4]`, with “active; inactive”; and `COP(=S)(OC)SCn1nnc2ccccc2c1=O`, with “active; inactive”; and `O=C1CCCO1`, with “inactive; active”.
With `COc1ccc([N+](=O)[O-])cc1N` the entry was “active; inactive”; with `C=CCc1ccc(OC)c(OC)c1`, “inactive; active”.
As for `CNC(=O)O/N=C/C(C)(C)SC`, the result was inactive.
As for `CNC(=O)CSP(=S)(OC)OC`, the outcome was active.
With `O=NN1CCC1` the entry was “active; inactive”.
With `Nc1ccc(O)c(N)c1`, the outcome is “active; inactive”.
Consider `CCCCCC`, for which the result was inactive.
With `CCCN(N=O)C(=N)N[N+](=O)[O-]` the entry was “active; inactive”.
Then `O=NO`, with “active”; and `Cc1ccc(S(=O)(=O)Oc2ccc(N=Nc3ccc(-c4ccc(N=Nc5c(O)ccc6cc(S(=O)(=O)O)cc(S(=O)(=O)O)c56)c(C)c4)cc3C)cc2)cc1`, with “active”.
For `NC(=O)c1ccccc1C(N)=O`, the outcome was inactive.
Then `O=Cc1ccco1`, with “active; inactive”.
With `O=[N+]([O-])c1ccc(Cl)cc1` the entry was “active”; with `OCc1ccccc1`, “inactive”; with `CCCN(CCC)N=O`, “active”.
`O=C1C(c2[nH]c3ccc(S(=O)(=O)O)cc3c2O)=Nc2ccc(S(=O)(=O)O)cc21`: the result was inactive.
For the molecule `ClC1C(Cl)C(Cl)C(Cl)C(Cl)C1Cl` (stereo not drawn), the outcome is “inactive; active”.
Consider `C1CNCCN1`, for which the result was inactive.
With `Nc1c(Cl)cc(Cl)cc1Cl` the entry was “inactive; active”; with `COP(=O)(OC)C(O)C(Cl)(Cl)Cl` (stereo not drawn), “active”.
With `O=NN(CCO)CCO` the entry was “active; inactive”; with `Cc1ccc(Cl)cc1N`, “inactive; active”.
With `ClC=C(Cl)Cl` the entry was “inactive; active”.
Regarding `O=Nc1ccc(Nc2ccccc2)cc1`, the result was active.

These data come from PubChem BioAssay AID1194 (EPA DSSTox, 2008).
